Assay results taken from EP4740933A1, “CLEANING COMPOSITION AND USE THEREOF” (Suzhou Oulit Biopharm Co., Ltd., priority 2023, dated 2025).
Several values for one entry are separate records, joined by “and”; a condition that tells them apart may be missing. Identical values can stand only once. Like-named read-outs stand apart in the source and are kept apart here.

Columns and labels:
[1] = tested on: Reconstructed Human Epidermis; assay: In vitro skin irritation: reconstructed human epidermis test (OECD TG 439); format: cell-based; design: Viability Mean: concentration or dose not given beside the values
[2] = Foaming test, modified Ross-Miles method (GB/T7462-1994); format: physicochemical; conditions: 2.5 g/L, 50 ± 0.5 °C
Protocol: Conditions: test solution concentration: 2.5 g/L; test temperature: 50 ± 0.5 °C; test water: soft water/hard water.

[3] = tested on: Bovine Corneal; assay: Eye irritation: Bovine Corneal Opacity and Permeability Test (OECD TG 437); conditions: positive control, no test concentration printed (/)
Text: Basis: Bovine Corneal Opacity and Permeability Test, OECD TG 437 (2020).

| Foam volume at 30 s ([2]; soft water) [mL] | Foam volume at 3 min ([2]; soft water) [mL] | Foam volume at 5 min ([2]; soft water) [mL] | Compound | IL-1α content [1] [pg/mL] | Viability Mean [1] [%] | further results |
| --- | --- | --- | --- | --- | --- | --- |
| 310 | 250 | 210 | Sodium laureth sulfate [Sodium laureth sulfate (AES)] | 20.59 ± 5.27 | 57.12 |  |
| 310 | 260 | 230 | sodium cocoylmethyl taurate [CMT-35] |  |  |  |
| 330 | 200 | 140 | sodium cocoyl alaninate [ACS30] |  |  |  |
|  |  |  | CCCCCCCCCCCCOS(=O)(=O)[O-].[Na+] [Sodium dodecyl sulfate (K12), Sodium dodecyl sulfate] | 96.26 ± 3.21 |  | Viability Mean ([1]; human): 40.79% |
| 460 | 430 | 400 | sodium cocoyl glycinate [GC30] |  |  |  |
|  |  |  | CCCCCCCCCCCC(=O)N[C@@H](C)C(=O)O.N=C(N)NCCC[C@H](N)C(=O)O [LA-Arg] | 3.5 ± 0.38 | 97.40 |  |
| 430 | 390 | 360 | potassium cocoyl glycinate [GCK30] |  |  |  |
|  |  |  | CCCCCCCCCCCCOS(=O)(=O)[O-].[Na+] [Positive control (PC)] | 89.45 ± 10.06 | 4.03 |  |
|  |  |  | CCO [Positive control (absolute ethanol), absolute ethanol] |  |  | In vitro irritancy score (IVIS) [3]: 32.3545 |
|  |  |  | CCCCCCCCCCCC(=O)NC(C)C(=O)[O-].[Na+] (stereo not shown) [LA-NaOH] | 3.88 ± 5.28 | 86.99 |  |
|  |  |  | CCCCCCCCCCCC(=O)N[C@@H](C)C(=O)O [Lauroyl alanine (LA), Lauroyl alanine] | 2.07 ± 0.59 | 95.52 |  |

| Compound | Foam volume at 30 s ([2]; soft water) [mL] | Foam volume at 3 min ([2]; soft water) [mL] | Foam volume at 5 min ([2]; soft water) [mL] | IL-1α content [1] [pg/mL] | Viability Mean [1] [%] | further results |
| --- | --- | --- | --- | --- | --- | --- |
| Lauroyl alanine-arginine | 380 | 340 | 335 |  |  | Foam volume at 30 s ([2]; hard water): 570 mL and 580 mL; Foam volume at 3 min ([2]; hard water): 540 mL and 560 mL and 565 mL; Foam volume at 5 min ([2]; hard water): 530 mL and 545 mL and 550 mL |
